Legend:
[1] = cited from earlier work
[2] = system: bovine serum albumin (BSA); conditions: cited from earlier work
[3] = system: L929 cells; assay: Cytotoxicity, MTT assay; format: cell-based; conditions: read-out: IC50 (best-fit), 48 h (method b31 says 24 h)
[4] = Critical micelle concentration from conductivity measurements; format: physicochemical; conditions: 25 °C
[5] = Solubility in water or ethanol by the conductivity method; conditions: 25 °C
[6] = Thermogravimetric analysis; format: physicochemical; conditions: TGA, nitrogen, 10 °C·min^–1
[7] = Pharmacokinetic experiments in mice; format: in vivo; conditions: printed as 'higher than that of naproxen'
[8] = cited from earlier work; remark: listed apart in the source

Structure (SMILES) | increase of permeation of naproxen through the skin [1] | binding affinity for BSA relative to parent naproxen [2] | IC50 [3] [µM] | critical micelle concentration ([4]; ethanol) | critical micelle concentration ([4]; water) | mass of solute per 100 g of solvent ([5]; ethanol) [g·100 g^–1] | mass of solute per 100 g of solvent ([5]; water) [g·100 g^–1] | beginning weight loss temperature [6] [°C] | cmax [7] [mg·L^–1] | improvement of dissolution rates compared with the original naproxen [8]
CC(C)OC(=O)[C@@H]1CCCN1.COc1ccc2cc([C@H](C)C(=O)O)ccc2c1 [L-proline isopropyl ester naproxen] | almost four times |  |  |  |  |  |  |  |  | 
CC(C)OC(=O)[C@@H](N)C(C)C.COc1ccc2cc([C@H](C)C(=O)O)ccc2c1 [L-valine isopropyl ester naproxen] |  | about 1 order of magnitude lower |  |  |  |  |  |  |  | 
CCCCCCCCCCCCCC[N+](C)(C)Cc1ccccc1.COc1ccc2cc([C@H](C)C(=O)[O-])ccc2c1 [[Ben][Nap], tetradecyldimethylbenzyl ammonium naproxen] |  |  | 111 | 6.25 × 10^–6 mol·L^–1 | 3.05 × 10^–5 mol·L^–1 | 97.61 | 61.6251 | 147.05 |  | 
COc1ccc2cc(C(C)C(=O)[O-])ccc2c1.C[N+](C)(C)CCO (stereo not shown) [[Ch][Nap], choline naproxen] |  |  | 783 | 3.48 × 10^–6 mol·L^–1 | 3.75 × 10^–5 mol·L^–1 | 70.23 | 124.51 | 171.93 | 23.051 | 
CCCCCCCCn1cc[n+](C)c1.COc1ccc2cc(C(C)C(=O)[O-])ccc2c1 (stereo not shown) [[Omim][Nap], 1-octyl-3-methylimidazole naproxen] |  |  | 174 | 4.89 × 10^–6 mol·L^–1 | 5.68 × 10^–5 mol·L^–1 | 82.00 | 112.56 | 218.79 |  | 
CCCC[P+](CCCC)(CCCC)CCCC.COc1ccc2cc(C(C)C(=O)[O-])ccc2c1 [[Tbp][Nap], tetrabutyl phosphonium naproxen] |  |  |  |  |  |  |  |  |  | up to 1000 times

From publication PMC9996794 (ACS Omega, 2023)
